In patent publication US8318815B2, “Method for treatment of tumors using nordihydroguaiaretic acid derivatives” (priority 1999, dated 2012):

Assays:
survivin gene expression = assay: RT-PCR analysis of survivin gene expression in C3 cells; assay type: cell-based, mouse; settings: 40 μM
Procedure: FIG. 17. RT-PCR Analysis of Survivin Gene Expression. […] Bottom: the corresponding GAPDH controls. Band intensities were quantitated with Scion Image. (b) Survivin RT-PCR product signals were normalized to those of the GAPDH controls and plotted.
M4N Treatment. C3 cells (5×10^6) were seeded in 150-mm plates and allowed to attach to the plates. Twenty-four hours after seeding, cultures were washed twice with PBS and treated with M4N dissolved in 1% DMSO mixed with the growth medium.
RT-PCR analysis. mRNA was isolated by the guanidinium thiocyanate and phenol method from the cultured cells as described in Molecular Cloning (40). […] The c-DNA products obtained were amplified under the PCR conditions: […], 60° C. for 55 seconds, and 72° C. for 1 minute for 30 cycles.

[1] = system: cellular gene expression in C3 cells; assay: 9600 gene array hybridization of C3 cells; assay type: cell-based, mouse; settings: 72 hrs
Excerpt: Gene expression with 9600 gene arrays was studied (FIG. 5). Five micrograms each of poly A^+RNA from 72 hrs. M4N ([…]) treated (C3 M4N) and non-treated (C3 DMSO) was used in a pair of human 9600 gene array hybridization study according to the procedure described in Genomics 51, 313-324 1998. The hybridization image was captured by a color video camera with a Nikon 55 mm AF micro Niko lens and digitized by a Macintosh LC630 computer. Such detection via enzyme substrate reaction of color-forming enzymes in either single or dual-color mode is reproducible and extremely sensitive (can detect <5 copies of transcript per cell with RNAs from 10^7 cells).
[…]. Image files in TIFF format and data files in MS excel format are kept on ZIP diskette. Gene names and clone ID numbers are available for obtaining Image clones for future northern blot confirmation.

[2] = system: SP1-regulated HPV E6/E7 promoter; assay: HPV16 LCR (P97 promoter) luciferase reporter assay in C33A cells; settings: thirty hours after drug treatment
C3 tumor = assay: Histopathology of excised C3 tumors; assay type: in vivo, mice; settings: hematoxylin and eosin sections
Procedure: Drug treated (M4N) and DMSO vehicle-treated or untreated tumors (CON) from two groups of mice were prepared for histopathology examination. The excised tumors were immediately fixed and then stored in 4% formaldehyde in phosphate buffered saline. The fixed tissue was then dehydrated through a series of graded alcohols and xylene and embedded in paraffin. The paraffin tissue blocks were thin sectioned and stained for microscopy with hematoxylin and eosin. […] They show the high nuclear/cytoplasmic ratio, pleomorphic nuclear changes, high mitotic figures, spindle like sarcoma shape, and infiltration into the surrounding tissue characteristic of cancer cells.

C3 cells [3] = system: C3 cells
Procedure: (§1) FIG. 9. […] (a-d) C3, CEM-T4, C33a, and TC-1 cells were treated with different concentrations of M4N. The number of cells present at the initiation of the experiment is indicated as Day 0. After three days the number of viable cells were counted and plotted versus the M4N concentration. […] After 3 days, one-half of the M4N treated cells were given fresh media containing only 1% DMSO (M-D), while the rest of the cells were given fresh media with the same conditions (second media change). The cells were counted daily and plotted versus the time of treatment.
HPV-16 transformed immortal mouse epithelial cells (C3 cells) were plated at a density of 10^5 cells per vial.
The effect on C3 growth following removal of M4N from the medium was also examined. C3 cells were plated at a density of 10^4 cells per vial. […] The other ⅔ of the cell vials were washed and replaced with the same media administered before.
This hypothesis was tested by examining the antiproliferative effect of M4N on a number of different cell lines.

HSV-1 = HSV-1 skin infection in guinea pig, topical treatment; assay type: in vivo
Procedure: The drug M4N was also tested in inhibition of HSV-1 replication in skin infections in guinea pigs. Guinea pig skin was pinched with needles and HSV-1 […] was applied topically to infect each pricked area. M4N was then applied to the pricked infected area following infection daily for 6 days.
Six areas of bared back skin of a guinea pig were punched sterilely with a 5=DIN needle. Two areas were infected with HSV-1 (HSV-C, culture supernatant, or isolated HSV in saline, HSV-SC). The other four areas were infected with HSV-SC.

caspase-3 = settings: C3 cells, 72 hours
C33a cell line = assay: C33a cell growth; assay type: cell-based, human; settings: three days
Procedure: as §1

TC-1 cell line = assay: TC-1 cell growth; settings: TC-1 cells
Procedure: as §1

C3 cells [4] = assay: Cell cycle DNA content by propidium iodide flow cytometry, C3; settings: C3, 72 hours
Excerpt: The cells were trypsinized, fixed with ethanol, stained with propidium iodide, and were subsequently analyzed by flow cytommetry. […] The indicated stages of the cell cycle are labeled and correspond to the relative cellular DNA compliment as determined by staining intensity.

[5] = system: HIV LTR promoter (Tat-transactivation); assay: Tat-transactivation of HIV promoter activity in Cos cells, SEAP assay; assay type: cell-based; settings: read-out: IC50 for inhibition of HIV Tat-regulated transactivation
Excerpt: As reported previously, methylated NDGA derivatives can block Sp1 binding to the enhancer sites of a variety of viral promoters including HIV, ICP4 of HSV, E6/E7 gene of HPV (8, 9, 10). We further tested the G4N effect on the Tat-transactivation of HIV promoter activity in Cos cells by the SEAP assay as previously described. […] There were 60-fold or more increase in SEAP expression when Cos cells were cotransfected with the CMV promoter driven Tat gene (8). Such Tat-driven ransactivation of the HIV LTR promoter activity was previously shown to be Sp1 regulated (7, 8). In the presence of G4N, we observed inhibition of HIV transactivation in a dose-dependent fashion (FIG. 14). […]. The differences perhaps are due to the chemical nature of the test compounds affecting the drug uptake to the cells.

CEM-T4 line = assay: CEM-T4 cell growth; assay type: cell-based, human; settings: three days
Procedure: as §1

E6/E7 mRNA = assay: RT-PCR of HPV-16 E6/E7 transcripts in C3 cells; settings: 40 μM
Procedure: The RTPCR samples were removed after increasing cycles of amplification and resolved on an agarose gel.
The RT-PCR product was analyzed on a 2% agarose gel.

With `COc1ccc(C[C@@H](C)[C@@H](C)Cc2ccc(OC)c(OC)c2)cc1OC` [M4N, tetra-O-methylnordihydroguaiaretic acid] the “reduction in survivin expression” value (survivin gene expression; 24 hours) was 65%, the “reduction in survivin expression” value (survivin gene expression; 72 hours) was 80% and the “Cyclin-dependent kinase 7 expression, Treated” value ([1]; 40 μM, Untreated = 100%) was “(5%)”. The “Cysteine protease expression, Treated” value ([1]; 40 μM, Untreated = 100%) was “(7%)”, the “Human TNF-related Apoptosis AP02 expression, Treated” value ([1]; 40 μM, Untreated = 100%) was “(3%)” and the “Human cytokine receptor expression, Treated” value ([1]; 40 μM, Untreated = 100%) was “(2%)”. For the same molecule, the “Proliferating cell nuclear antigen, PCNA expression, Treated” value ([1]; 40 μM, Untreated = 100%) was “(1%)”, the “Increase: Apoptosis (APO-1) antigen” value ([1]; 40 μm, vs C3 DMSO) was “(100X)” and the “Increase: Cyclin-dependent kinase inhibitor” value ([1]; 40 μm, vs C3 DMSO) was “(100X)”. The “Increase: Death Domain Three DR3” value ([1]; 40 μm, vs C3 DMSO) was “(100X)”, the “Increase: Human Map Kinase” value ([1]; 40 μm, vs C3 DMSO) was “(40X)” and the “Increase: Ras-related protein RAP-1” value ([1]; 40 μm, vs C3 DMSO) was “(60X)”. The “Sp1 regulated transcription initiation at the HPV E6/E7 promoter (specific luciferase activity)” value [2] was “dramatically reduces”, the “histopathology of treated tumors” value (C3 tumor) was “significant necrosis” and the “rate of cell growth following the change to drug-free media” value (C3 cells [3]; 40 μM for 73 hours, then media with 1% DMSO only) was “not notably increased”. The “fraction of viable cells compared to the total cell count” value (C3 cells [3]; 40 μM in 1% DMSO) was “remained constant”, the “growth and division of C3 cells” value (C3 cells [3]; 40 μM in 1% DMSO, versus DMSO only control) was “markedly reduced” and the “"threshold" concentration above which the percentage of viable cells decreases precipitously” value (C3 cells [3]; C3 cells) was 60 µM. For the same molecule, the “cell death after prolonged exposure” value (C3 cells [3]; C3 cells, eight days, 40 μM) was “no increase in cell death”, the “viable fraction of arrested cells” value (C3 cells [3]; the four cell lines treated (C3, CEM-T4, C33a, TC-1), up to the threshold concentration) was greater than 95% and the “blisters in HSV-1 infected skin areas at day 6” value (HSV-1; 30 μl of 60 mg/ml in DMSO, five times per day for six days) was “no blisters”. For the same molecule, the “shedding of the virus” value (HSV-1; 4 days after the drug treatment) was “no shedding of the virus”, the caspase-3 cleavage (caspase-3) was “caspase-3 activation” and the “growth of C33a cell line” value (C33a cell line) was “blocked”. For the same molecule, the “"threshold" concentration above which the percentage of viable cells decreases precipitously” value (TC-1 cell line) was 40 µM, the “cells showing G2/M DNA content” value (C3 cells [4]) was greater than 90% and the IC50 [5] was 11 µM. For the same molecule, the “growth of CEM-T4 line” value (CEM-T4 line) was “blocked”, the “levels of the E7 transcript” value (E6/E7 mRNA; 5 to 72 hours, rtPCR) was “clear reduction” and the “amplified E7 (321 bp) and E6 (204 bp) RT-PCR products” value (E6/E7 mRNA; 71 hours, following 30 cycles of amplification) was “barely detectable”.
